Results: patent US20040142881A1, “Novel immunosuppressive agent” (TOYO SUISAN KAISHA, LTD., priority 2001, published 2004)

Test system: responder cells (T lymphocytes)
Test: Mixed lymphocytes reaction ([3H]-thymidine uptake of responder cells)
Assay type: cell-based, human
Conditions: test substance at 2.5, 5, 10, 25 μg/mL (Nos. 1-6) or 5, 10, 25 μg/mL (Nos. 7-12); 4 days culture with mitomycin C-treated stimulator cells; FIGS. 1 and 2
Procedure: Mixed lymphocytes reaction
Lymphocytes serving as stimulator cells and responder cells were prepared from blood taken from individual healthy persons.
The responder cells were further separated from the lymphocyte cells to give T lymphocytes alone.
No treatment was applied to the responder cells. 10^6/mL of the stimulator cells were treated with 10 μg/mL of mitomycin C to stop the cell growth.
Subsequently, the responder cells were inoculated in a 96-well plate, at a rate of 10^5 cells per well, and then test substances (compound Nos. 1 to 12 listed in Table 1 below) were added to a predetermined concentration. The reaction mixture was cultured at 37° C. for one hour. Thereafter, the stimulator cells were added at a rate of 10^5 cells per well. The mixture was cultured in a CO2 incubator at 37° C. for 4 days. After the incubation, the proliferation ability of the responder cells was quantified as follows. First, [^3H]-thymidine was added to the responder cells and incorporated into the nucleus of the cells by culturing the cells for 16 hours. Then, the amount of [^3H]-thymidine uptake into the cells was determined by a scintillation counter.

## CCCCCCCCCCCCCCCCCC(=O)OCC(CO[C@@H]1O[C@H](CS(=O)(=O)[O-])[C@H](O)[C@H](O)[C@H]1O)OC(=O)CCCCCCCCCCCCCCCCC.[Na+] (stereo partly drawn) [compound No. 12, 3-0-(6-deoxy-6-sulfo-β-D-galactopyranosyl)-1,2-di-0-stearoyl-glycerol sodium salt]
  immunosuppressive activity (amount of [3H]-thymidine uptake; the lower the uptake, the higher the activity): not confirmed
